Data published in paper PMC5603865, “Synthesis, In-Vitro Activity and Metabolic Properties of Quinocetone and Structurally Similar Compounds” (Iranian Journal of Pharmaceutical Research : IJPR, 2017).
≈ marks a conversion by molar mass, not a printed value. Read-outs that look alike come from different tables or passages of the source.

Experiments:
[1] = system: Clostridium perfringen CVCC52,8604; assay: In-vitro antibacterial activity, MIC by broth dilution (anaerobic chamber); format: cell-based; details: Clostridium, 24 h
Method: (§1) All test compounds were dissolved in dimethyl sulfoxide (DMSO, Sigma, USA) and then diluted in Dulbecco’s modified Eagle’s medium (DMEM, Gibco, USA) at desired concentrations for cell proliferation analyses or diluted in nutrient broth medium for antimicrobial susceptibility testing respectively. The final concentration of DMSO in the DMEM culture medium was under 0.1% (v:v).
(§2) The preliminary antibacterial activities were obtained for selected compounds against various bacteria, namely: Staphyloccocus aureus ATCC25923 (Gram-positive bacteria), Clostridium perfringen CVCC52,8604 (anaerobes bacteria), Salmonella pullorum (Gram-negative bacteria), Escherichia coli ATCC25922 (Gram negative bacteria) and Aeromonas hydrophila (Gram-negative bacteria) were used in the study. Each strain was cultured in appropriate broth medium. Clostridium perfringen was incubated in an anaerobic chamber. The minimum inhibitory concentration (MIC) for each test compound was estimated using the broth dilution method. The MIC’s was determined for each strain/compound pairs that presented antimicrobial activity. The method was modified from Mohapatra›s methods ([14], [15]). Cell suspensions were prepared in 2 mL of liquid medium with concentrations of various tests of compounds in 15 mL culture tubes by inoculation with 100 μL of 10^6 cfu/mL from each stock. The cultures were incubated at 28 °C or 37 °C for 24 h. Tubes showing no visible turbidity represented the MIC, and subsequently, were inoculated on the right side of the 9cm sterile nutrient agar plates without various test compounds and incubated for 24 h (Clostridium perfringen was incubated in an anaerobic chamber.). The least concentration, at which no growth was observed, represented the minimum bactericidal concentration (MBC) ([16]).

[2] = system: normal human Chang liver cells; assay: In-vitro cytotoxicity, MTT cell proliferation assay; format: cell-based; details: 24 h incubation, concentration reducing viable cells by 50%
Method: as §1
(§3) HepG2 and normal human Chang liver cells were obtained from the Institute of Biochemistry and Cell Biology, Shanghai Institutes for Biological Sciences, Chinese Academy of Sciences (Shanghai, China). HepG2 and normal human Chang liver cells were cultured at 37˚Cwith 5% CO2 in DMEM supplemented with 2% L-glutamine, 10% fetal bovine serum (Gibco, USA), 100 U/mL penicillin and 100 […] (Gibco, USA).
(§4) The methodology for evaluating the cytotoxicity inhibitory activity of various test compounds towards cell proliferation has been described previously ([11], [17]). Cell proliferation inhibitory analyses were carried out using the 3-(4,5-dimethylthiazole-2-yl)-2,5-diphenyl tetrazolium bromide (MTT, Sigma, USA) assay. Briefly, cancers HepG2 and normal human Chang liver cells were harvested and resuspended in fresh growth medium. A 100 μL cell suspension (5 × 10^4 cells/mL) was aliquoted into each well of a 96-well culture plate. After 12 h incubation, the medium was replaced with fresh medium containing various concentrations of test compounds. The cells were then incubated for another 24 h. At the end of exposure, 10 μL of MTT solution (5 mg/mL) was added, and the cells were incubated for 4 h at 37 °C. The cells were treated with 100 μL DMSO, and absorbance was recorded at 570 nm using a microplate ELISA reader (ELX800, Bio-Tek, USA). All experiments were performed at least thrice, and data were presented as the mean of sixplicate wells ± standard deviation (SD). Cell inhibition was calculated as follows:
(§5) (OD of control group − OD of experimental group) / (OD of control group − OD of blank group) ×100%. The IC50 value for a compound was calculated using SPSS.

[3] = system: Gram-positive and Gram-negative bacteria; assay: Antibacterial activity class based on the MIC results; format: cell-based
Method: as §2
In this study, activity of quinoxaline-1, 4-dioxides and their deoxygenations was tested against selected Gram-negative bacteria (Escherichia coli, Salmonella pullorum and Aeromonas hydrophila), Gram-positive bacteria (Staphyloccocus aureus and Clostridium perfringen). The in-vitro antibacterial activity was based on the MIC results: Strong antibacterial activity, if MIC is less than 50 μg/mL; Moderate, if MIC is in between 50 and 250 μg/mL; No activity, if MIC is more than 500 μg/mL.

[4] = system: Salmonella pullorum; assay: In-vitro antibacterial activity, MIC by broth dilution; format: cell-based; details: Salmonella enterica, PULLORUM, 24 h
Method: as §1, §2

[5] = system: Escherichia coli ATCC25922; assay: as above; format: cell-based; details: Escherichia coli, read-out: MIC values Escherichia coli ATCC25922
Method: as §1, §2

[6] = system: Aeromonas hydrophila; assay: as above; format: cell-based; details: Aeromonas hydrophila, 24 h, read-out: MIC values Aeromonas hydrophila
Method: as §1, §2

[7] = system: Staphyloccocus aureus ATCC25923; assay: as above; format: cell-based; details: 24 h, read-out: MIC values Staphyloccocus aureus ATCC25923
Method: as §1, §2

[8] = system: HepG2 cells; assay: In-vitro cytotoxicity, MTT cell proliferation assay; format: cell-based, human; details: 24 h incubation, concentration reducing viable cells by 50%
Method: as §1, §3, §4, §5

[9] = Homo sapiens, Chang liver, 24 h
[10] = ATCC25922, broth dilution, 24 h

SMILES | MIC [1] | IC50 [2] | IC50 [2, 9] | antibacterial activity against Gram-positive and Gram-negative bacteria [3] | MIC [4] | MIC [5, 10] | MIC ([6]; broth dilution) | MIC ([7]; broth dilution) | IC50 [8] | IC50 ([8]; Homo sapiens, HepG2, 24 h) | MIC ([5]; ATCC25922, 24 h) | MIC [6] | MIC [7]
COc1ccc(/C=C/C(=O)c2c(C)[n+]([O-])c3ccccc3[n+]2[O-])cc1 [Compound 3f] | 26.9 µg/mL (≈ 79.9 µM) | 86.9 ± 6.3 µM | 87 µM | little or no activity | > 500 µg/mL | > 500 µg/mL | > 500 µg/mL | 13.4 µg/mL (≈ 40 µM) | 99.7 ± 2.97 µM | 99 µM |  |  | 
Cc1c(C(=O)/C=C/c2ccco2)[n+]([O-])c2ccccc2[n+]1[O-] [Compound 6, 3-methyl-2-(3-fura-2-propenoyl)-quinoxaline-1,4-dioxide] | 94.7 µg/mL (≈ 320 µM) |  | 299 ± 6.72 µM | strong or moderate activity | 189 µg/mL (≈ 639 µM) |  |  |  |  | 240 ± 34.8 µM | 94.7 µg/mL (≈ 320 µM) | 94.7 µg/mL (≈ 320 µM) | 94.7 µg/mL (≈ 320 µM)
CCOC(=O)c1c(C)[n+]([O-])c2ccccc2[n+]1[O-] [Compound 8, 3-methyl-2-quinoxaline-2-carboxylate-1,4-dioxide] | 4.96 µg/mL (≈ 20 µM) |  | 217 ± 3.52 µM | strong or moderate activity | 19.8 µg/mL (≈ 79.9 µM) |  | 39.7 µg/mL (≈ 160 µM) | 39.7 µg/mL (≈ 160 µM) |  | 217 ± 3.48 µM | 4.96 µg/mL (≈ 20 µM) |  | 
Cc1c(C(=O)/C=C/c2cccc([N+](=O)[O-])c2)[n+]([O-])c2ccccc2[n+]1[O-] [Compound 3d] | > 500 µg/mL |  | 411 ± 17.1 µM | little or no activity | 56.2 µg/mL (≈ 160 µM) | > 500 µg/mL | 449 µg/mL (≈ 1280 µM) | 449 µg/mL (≈ 1280 µM) |  | 380 ± 10.6 µM |  |  | 
Cc1c(C(=O)/C=C/c2ccccc2O)[n+]([O-])c2ccccc2[n+]1[O-] [Compound 3c] | 25.8 µg/mL (≈ 79.9 µM) |  | 192 ± 10.3 µM | strong or moderate activity | 103 µg/mL (≈ 320 µM) | 103 µg/mL (≈ 320 µM) | 103 µg/mL (≈ 320 µM) |  | 102 ± 4.13 µM | 102 µM |  |  | 25.8 µg/mL (≈ 79.9 µM)
Cc1nc2ccccc2nc1C(=O)/C=C/c1ccc(Cl)cc1 [Compound 5g] | > 500 µg/mL |  | 689 ± 46.2 µM |  | > 500 µg/mL | > 500 µg/mL | > 500 µg/mL | > 500 µg/mL |  | 533 ± 24.8 µM |  |  | 
Cc1c(C(=O)/C=C/c2ccc([N+](=O)[O-])cc2)[n+]([O-])c2ccccc2[n+]1[O-] [Compound 3e] | 449 µg/mL (≈ 1280 µM) |  | 536 ± 22.9 µM | little or no activity | 225 µg/mL (≈ 639 µM) |  | 112 µg/mL (≈ 320 µM) |  |  | 449 ± 19.4 µM | 449 µg/mL (≈ 1280 µM) |  | 449 µg/mL (≈ 1280 µM)
CCOC(=O)c1nc2ccccc2nc1C [Compound 9, 3-methyl-2-quinoxaline-2-carboxylate] | > 500 µg/mL |  | 610 ± 18.4 µM | little or no activity | > 500 µg/mL | > 500 µg/mL | 138 µg/mL (≈ 639 µM) | > 500 µg/mL |  | 547 ± 7.71 µM |  |  | 
Cc1nc2ccccc2nc1C(=O)/C=C/c1cccc([N+](=O)[O-])c1 [Compound 5d] | > 500 µg/mL |  | 499 ± 8.75 µM |  | > 500 µg/mL | > 500 µg/mL | > 500 µg/mL | > 500 µg/mL |  | 461 ± 4.49 µM |  |  | 
Cc1nc2ccccc2nc1C(=O)/C=C/c1cccc(O)c1 [Compound 5b] | > 500 µg/mL |  | 463 ± 9.91 µM |  | > 500 µg/mL | > 500 µg/mL | 371 µg/mL (≈ 1280 µM) | > 500 µg/mL |  | 526 ± 20.9 µM |  |  | 
